Data published in ChEMBL document CHEMBL3751819, “Navigating into the chemical space between MGCD0103 and SAHA: novel histone deacetylase inhibitors as a promising lead” (Medchemcomm, 2015).
Activity calls are given as the source filed them. The rule behind the calls is not given here.

Experiments:
HeLa [1] = assay: Induction of cell cycle arrest in human HeLa cells assessed as accumulation at G2/M phase at 1 uM after 24 hrs by propidium iodide staining based flow cytometry (reference value: 0.35 to 0.37%); assay type: functional
HeLa [2] = assay: Induction of apoptosis in human HeLa cells assessed as viable cells at 1.25 uM after 48 hrs by annexin-V-FITC/propidium iodide staining based flow cytometry (reference value: 88.6%); assay type: functional; settings: Homo sapiens, HeLa, 48 h; read-out: Activity
[3] = Antiproliferative activity against human HCT116 cells assessed as reduction in cell viability after 72 hrs by MTT assay; assay type: functional, cell-based; settings: HCT-116, 72 h
HeLa [4] = assay: Induction of apoptosis in human HeLa cells assessed as late apoptotic cells at 2.5 uM after 48 hrs by annexin-V-FITC/propidium iodide staining based flow cytometry (reference value: 9.3%); assay type: functional
HeLa [5] = assay: Induction of cell cycle arrest in human HeLa cells assessed as accumulation at S phase at 1 uM after 24 hrs by propidium iodide staining based flow cytometry (reference value: 0.12 to 0.13%); assay type: functional
MCF7 [6] = assay: Antiproliferative activity against human MCF7 cells assessed as reduction in cell viability after 72 hrs by MTT assay; assay type: functional, cell-based; settings: MCF7, 72 h
HepG2 [7] = assay: Antiproliferative activity against human HepG2 cells assessed as reduction in cell viability after 24 hrs by MTT assay; assay type: functional, cell-based; settings: HepG2, 24 h
HepG2 [8] = assay: Antiproliferative activity against human HepG2 cells assessed as reduction in cell viability after 48 hrs by MTT assay; assay type: functional, cell-based; settings: HepG2, 48 h
[9] = biological target: T1, Protein deacetylase HDAC6 (Homo sapiens) (UniProt Q9UBN7); assay: Inhibition of HDAC6 in human A549 cells assessed as increase in acetylated tubulin expression at 5 uM incubated for 12 hrs by DAPI staining based immunofluorescence microscopy; assay type: cell-based
T1 sequence (whole entry): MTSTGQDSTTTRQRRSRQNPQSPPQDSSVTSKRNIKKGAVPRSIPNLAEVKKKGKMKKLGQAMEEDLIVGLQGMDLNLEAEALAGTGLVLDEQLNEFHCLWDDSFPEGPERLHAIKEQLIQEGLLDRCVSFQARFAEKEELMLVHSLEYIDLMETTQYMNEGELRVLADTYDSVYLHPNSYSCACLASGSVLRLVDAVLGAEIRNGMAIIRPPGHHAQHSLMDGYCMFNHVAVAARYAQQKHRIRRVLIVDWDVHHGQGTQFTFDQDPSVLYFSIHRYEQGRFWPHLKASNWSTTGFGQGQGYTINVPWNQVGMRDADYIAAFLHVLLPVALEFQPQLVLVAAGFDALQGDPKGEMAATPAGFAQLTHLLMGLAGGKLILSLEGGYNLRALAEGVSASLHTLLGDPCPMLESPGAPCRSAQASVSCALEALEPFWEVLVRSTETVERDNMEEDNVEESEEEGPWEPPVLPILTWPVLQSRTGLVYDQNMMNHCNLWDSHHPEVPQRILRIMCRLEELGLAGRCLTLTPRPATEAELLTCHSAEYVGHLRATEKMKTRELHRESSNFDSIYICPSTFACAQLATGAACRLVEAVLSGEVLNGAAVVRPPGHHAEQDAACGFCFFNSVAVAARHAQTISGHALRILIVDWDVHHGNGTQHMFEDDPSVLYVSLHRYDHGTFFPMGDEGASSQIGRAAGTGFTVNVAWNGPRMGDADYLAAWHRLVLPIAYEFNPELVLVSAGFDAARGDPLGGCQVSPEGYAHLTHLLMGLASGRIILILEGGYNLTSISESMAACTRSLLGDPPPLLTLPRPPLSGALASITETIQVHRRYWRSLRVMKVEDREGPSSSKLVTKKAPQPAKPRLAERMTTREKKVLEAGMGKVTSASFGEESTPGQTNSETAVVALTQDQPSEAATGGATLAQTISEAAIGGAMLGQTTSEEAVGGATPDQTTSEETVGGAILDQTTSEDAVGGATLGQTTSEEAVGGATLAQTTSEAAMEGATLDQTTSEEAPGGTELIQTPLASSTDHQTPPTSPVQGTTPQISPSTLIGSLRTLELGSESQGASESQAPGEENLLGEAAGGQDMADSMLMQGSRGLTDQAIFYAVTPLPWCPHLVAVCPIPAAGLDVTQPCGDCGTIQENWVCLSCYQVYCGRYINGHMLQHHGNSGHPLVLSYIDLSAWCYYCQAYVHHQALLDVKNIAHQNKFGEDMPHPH

HepG2 [10] = assay: Antiproliferative activity against human HepG2 cells assessed as reduction in cell viability after 72 hrs by MTT assay; assay type: functional, cell-based; settings: HepG2, 72 h
[11] = Half life in mouse microsomes; assay type: ADME, Microsome
[12] = Half life in artificial intestinal fluid; assay type: ADME
HeLa [13] = assay: Induction of apoptosis in human HeLa cells assessed as necrotic cells at 2.5 uM after 48 hrs by annexin-V-FITC/propidium iodide staining based flow cytometry (reference value: 0.693%); assay type: functional
A549 [14] = assay: Antiproliferative activity against human A549 cells assessed as reduction in cell viability after 24 hrs by MTT assay; assay type: functional, cell-based; settings: A549, 24 h
A549 [15] = assay: Antiproliferative activity against human A549 cells assessed as reduction in cell viability after 72 hrs by MTT assay; assay type: functional, cell-based; settings: for IC50: A549, 72 h
MCF7 [16] = assay: Antiproliferative activity against human MCF7 cells assessed as reduction in cell viability after 24 hrs by MTT assay; assay type: functional, cell-based; settings: MCF7, 24 h
HeLa [17] = assay: Induction of cell cycle arrest in human HeLa cells assessed as accumulation at G2/M phase at 0.5 uM after 24 hrs by propidium iodide staining based flow cytometry (reference value: 0.35 to 0.37%); assay type: functional
HeLa [18] = assay: Antiproliferative activity against human HeLa cells assessed as reduction in cell viability after 72 hrs by MTT assay; assay type: functional, cell-based
A549 [19] = assay: Antiproliferative activity against human A549 cells assessed as reduction in cell viability after 48 hrs by MTT assay; assay type: functional, cell-based; settings: A549, 48 h
[20] = Antiproliferative activity against human HCT116 cells assessed as reduction in cell viability after 24 hrs by MTT assay; assay type: functional, cell-based; settings: HCT-116, 24 h
[21] = biological target: T2, Protein deacetylase HDAC6 (Homo sapiens, UniProt Q9UBN7); assay: Inhibition of HDAC6 (unknown origin) using Boc-Lys(acetyl)-AMC as substrate preincubated for 5 mins followed by substrate addition by fluorescence assay
T2 sequence (Q9UBN7 whole entry): T1 sequence (whole entry)

[22] = Half life in artificial gastric fluid; assay type: ADME
[23] = Half life in mouse plasma; assay type: ADME, cell-free
HeLa [24] = assay: Antiproliferative activity against human HeLa cells assessed as reduction in cell viability after 48 hrs by MTT assay; assay type: functional, cell-based

SMILES	Activity (HeLa [1]) [%]	viability at 1.25 µM (HeLa [2]) [%]	IC50 [3] [µM]	Activity (HeLa [4]) [%]	Activity (HeLa [5]) [%]	IC50 (MCF7 [6]) [µM]	IC50 (HepG2 [7]) [µM]	IC50 (HepG2 [8]) [µM]	inhibition [9]	IC50 (HepG2 [10]) [µM]	half-life [11] [h]	half-life [12] [h]	Activity (HeLa [13]) [%]	Activity (A549 [15])	IC50 (A549 [15]) [µM]	IC50 (MCF7 [16]) [µM]	Activity (HeLa [17]) [%]	IC50 (HeLa [18]) [µM]	IC50 (A549 [19]) [µM]	IC50 [20] [µM]	further results
O=C(/C=C/c1ccc(CNc2nccc(-c3cccnc3)n2)cc1)NO	0.29	82.6	1.05	13.2	0.05	2.66	20.5	5.95	Active	6.52	2.5	> 24	0.603	Dose-dependent effect	7.99	46	0.3	3.24	8.32	8.28	IC50 (A549 [14]): 98 µM; IC50 [21]: 0.069 µM; half-life [22]: > 24 h; half-life [23]: 10 h; IC50 (HeLa [24]): 3.79 µM
O=C(NO)c1ccc(CNc2nccc(-c3cccnc3)n2)cc1	0.31	79.3	1.66	11.9	0.03	2.41	22.9	4.03	Active	2.96	2.87	> 24	0.72	Dose-dependent effect	4.64	46	0.31	3.17	11.9	13.7	IC50 [21]: 0.078 µM; half-life [22]: > 24 h; half-life [23]: 12 h; IC50 (HeLa [24]): 7.23 µM
